Assay results published in patent US20230226005A1, “Methods of Treating, Ameliorating, Shortening Duration, and/or Reversing Symptoms and/or Complications of a Coronavirus Infection” (Yale University, priority 2020, published 2023).

Key:
SARS-CoV-2 = conditions: 600 mg po four times daily for up to 14 days; cited from earlier work
COVID-19 infection [1] = assay: Phase IIa study: body-family symptom score; format: in vivo; conditions: for body-family symptoms, Fitzmaurice mixed effects model, Effect: Camostat vs Placebo
COVID-19 infection [2] = assay: Phase IIa study: gastrointestinal-family symptom score; format: in vivo; conditions: for gastrointestinal-family symptoms, Fitzmaurice mixed effects model, Effect: Camostat vs Placebo
COVID-19 infection [3] = assay: Phase IIa study: COVID-19 PRO daily self-score, symptom severity score (items 1-33, 0-132); format: in vivo

## CN(C)C(=O)COC(=O)Cc1ccc(OC(=O)c2ccc(NC(=N)N)cc2)cc1 [camostat, 4-[[4-[(Aminoiminomethyl)amino]benzoyl]oxy]benzeneacetic acid 2-(dimethylamino)-2-oxoethyl ester]
SARS-CoV-2
  time required for a negative SARS-CoV-2 test (primary endpoint): did not show efficacy
COVID-19 infection [1]; Day 0
  body-family symptoms, Fitzmaurice mixed effects model, Camostat: 17.1 (1.2)
COVID-19 infection [1]; Day 1
  body-family symptoms, Fitzmaurice mixed effects model, Camostat: 14.3 (1.5)
  body-family symptoms, Fitzmaurice mixed effects model, Effect: −0.6 (1.7)
COVID-19 infection [1]; Day 2
  body-family symptoms, Fitzmaurice mixed effects model, Camostat: 13.6 (1.5)
  body-family symptoms, Fitzmaurice mixed effects model, Effect: −2.1 (1.7)
COVID-19 infection [1]; Day 3
  body-family symptoms, Fitzmaurice mixed effects model, Camostat: 11.9 (1.5)
  body-family symptoms, Fitzmaurice mixed effects model, Effect: −0.8 (1.7)
COVID-19 infection [1]; Day 4
  body-family symptoms, Fitzmaurice mixed effects model, Camostat: 8.9 (1.5)
  body-family symptoms, Fitzmaurice mixed effects model, Effect: 0.9 (1.7)
COVID-19 infection [1]; Day 5
  body-family symptoms, Fitzmaurice mixed effects model, Camostat: 7.3 (1.5)
  body-family symptoms, Fitzmaurice mixed effects model, Effect: 4.2 (1.7)
COVID-19 infection [1]; Day 6
  body-family symptoms, Fitzmaurice mixed effects model, Camostat: 5.2 (1.5)
  body-family symptoms, Fitzmaurice mixed effects model, Effect: 4.4 (1.7)
COVID-19 infection [1]; Day 7
  body-family symptoms, Fitzmaurice mixed effects model, Camostat: 4.9 (1.6)
  body-family symptoms, Fitzmaurice mixed effects model, Effect: 2.8 (1.7)
COVID-19 infection [1]; Day 8
  body-family symptoms, Fitzmaurice mixed effects model, Camostat: 3.9 (1.6)
  body-family symptoms, Fitzmaurice mixed effects model, Effect: 3.1 (1.8)
COVID-19 infection [1]; Day 9
  body-family symptoms, Fitzmaurice mixed effects model, Camostat: 3.8 (1.6)
  body-family symptoms, Fitzmaurice mixed effects model, Effect: 3.1 (1.8)
COVID-19 infection [1]; Day 10
  body-family symptoms, Fitzmaurice mixed effects model, Camostat: 3.3 (1.6)
  body-family symptoms, Fitzmaurice mixed effects model, Effect: 3.1 (1.8)
COVID-19 infection [1]; Day 11
  body-family symptoms, Fitzmaurice mixed effects model, Camostat: 3 (1.6)
  body-family symptoms, Fitzmaurice mixed effects model, Effect: 2.8 (1.8)
COVID-19 infection [1]; Day 12
  body-family symptoms, Fitzmaurice mixed effects model, Camostat: 3.8 (1.6)
  body-family symptoms, Fitzmaurice mixed effects model, Effect: 1.6 (1.8)
COVID-19 infection [1]; Day 13
  body-family symptoms, Fitzmaurice mixed effects model, Camostat: 3 (1.6)
  body-family symptoms, Fitzmaurice mixed effects model, Effect: 2.4 (1.8)
COVID-19 infection [1]; Day 14
  body-family symptoms, Fitzmaurice mixed effects model, Camostat: 3.2 (1.6)
  body-family symptoms, Fitzmaurice mixed effects model, Effect: 2 (1.8)
COVID-19 infection [2]; Day 0
  gastrointestinal-family symptoms, Fitzmaurice mixed effects model, Camostat: 2.1 (0.2)
COVID-19 infection [2]; Day 1
  gastrointestinal-family symptoms, Fitzmaurice mixed effects model, Camostat: 2.4 (0.3)
  gastrointestinal-family symptoms, Fitzmaurice mixed effects model, Effect: −0.4 (0.4)
COVID-19 infection [2]; Day 2
  gastrointestinal-family symptoms, Fitzmaurice mixed effects model, Camostat: 2 (0.3)
  gastrointestinal-family symptoms, Fitzmaurice mixed effects model, Effect: −0.1 (0.4)
COVID-19 infection [2]; Day 3
  gastrointestinal-family symptoms, Fitzmaurice mixed effects model, Camostat: 1.6 (0.3)
  gastrointestinal-family symptoms, Fitzmaurice mixed effects model, Effect: 0.1 (0.4)
COVID-19 infection [2]; Day 4
  gastrointestinal-family symptoms, Fitzmaurice mixed effects model, Camostat: 1 (0.3)
  gastrointestinal-family symptoms, Fitzmaurice mixed effects model, Effect: 0.8 (0.4)
COVID-19 infection [2]; Day 5
  gastrointestinal-family symptoms, Fitzmaurice mixed effects model, Camostat: 0.9 (0.3)
  gastrointestinal-family symptoms, Fitzmaurice mixed effects model, Effect: 0.5 (0.4)
COVID-19 infection [2]; Day 6
  gastrointestinal-family symptoms, Fitzmaurice mixed effects model, Camostat: 0.8 (0.3)
  gastrointestinal-family symptoms, Fitzmaurice mixed effects model, Effect: 0.6 (0.4)
COVID-19 infection [2]; Day 7
  gastrointestinal-family symptoms, Fitzmaurice mixed effects model, Camostat: 0.7 (0.3)
  gastrointestinal-family symptoms, Fitzmaurice mixed effects model, Effect: 0.4 (0.4)
COVID-19 infection [2]; Day 8
  gastrointestinal-family symptoms, Fitzmaurice mixed effects model, Camostat: 0.6 (0.3)
  gastrointestinal-family symptoms, Fitzmaurice mixed effects model, Effect: 0.5 (0.4)
COVID-19 infection [2]; Day 9
  gastrointestinal-family symptoms, Fitzmaurice mixed effects model, Camostat: 0.5 (0.3)
  gastrointestinal-family symptoms, Fitzmaurice mixed effects model, Effect: 0.5 (0.4)
COVID-19 infection [2]; Day 10
  gastrointestinal-family symptoms, Fitzmaurice mixed effects model, Camostat: 0.8 (0.3)
  gastrointestinal-family symptoms, Fitzmaurice mixed effects model, Effect: 0.2 (0.4)
COVID-19 infection [2]; Day 11
  gastrointestinal-family symptoms, Fitzmaurice mixed effects model, Camostat: 0.5 (0.3)
  gastrointestinal-family symptoms, Fitzmaurice mixed effects model, Effect: 0.2 (0.4)
COVID-19 infection [2]; Day 12
  gastrointestinal-family symptoms, Fitzmaurice mixed effects model, Camostat: 0.4 (0.3)
  gastrointestinal-family symptoms, Fitzmaurice mixed effects model, Effect: 0.3 (0.4)
COVID-19 infection [2]; Day 13
  gastrointestinal-family symptoms, Fitzmaurice mixed effects model, Camostat: 0.5 (0.3)
  gastrointestinal-family symptoms, Fitzmaurice mixed effects model, Effect: 0.1 (0.4)
COVID-19 infection [2]; Day 14
  gastrointestinal-family symptoms, Fitzmaurice mixed effects model, Camostat: 0.3 (0.3)
  gastrointestinal-family symptoms, Fitzmaurice mixed effects model, Effect: 0.4 (0.4)
COVID-19 infection [3]; COVID-19 PRO self-score, vs placebo
  acceleration of COVID-19 symptom resolution: up to 5 days
COVID-19 infection [3]; day 0
  COVID-19 symptom severity score raw Mean: 34.9
  symptom score, Fitzmaurice mixed effects model, A: Camostat arm: 31.81 (2.17)
  symptom score, Fitzmaurice mixed effects model, B − A (placebo − camostat): 0
  symptom severity score, Negative binomial model, A: Camostat arm: 31.81 (2.56)
  symptom severity score, Negative binomial model, B − A: 0
COVID-19 infection [3]; day 1
  COVID-19 symptom severity score raw Mean: 30.4
  symptom score, Fitzmaurice mixed effects model, A: Camostat arm: 27.95 (2.59)
  symptom score, Fitzmaurice mixed effects model, B − A (placebo − camostat): −0.73 (2.76)
  symptom severity score, ANCOVA linear mixed model, A: Camostat arm: −2.93 (2.11)
  symptom severity score, ANCOVA linear mixed model, B − A (placebo − camostat): −1.83 (2.99)
  symptom severity score, Negative binomial model, A: Camostat arm: 28.22 (3.06)
  symptom severity score, Negative binomial model, B − A: 0.95 (0.1)
COVID-19 infection [3]; day 2
  COVID-19 symptom severity score raw Mean: 29.7
  symptom score, Fitzmaurice mixed effects model, A: Camostat arm: 26.89 (2.63)
  symptom score, Fitzmaurice mixed effects model, B − A (placebo − camostat): −3.09 (2.8)
  symptom severity score, ANCOVA linear mixed model, A: Camostat arm: −3.96 (2.16)
  symptom severity score, ANCOVA linear mixed model, B − A (placebo − camostat): −4.22 (3.02)
  symptom severity score, Negative binomial model, A: Camostat arm: 27.28 (3.05)
  symptom severity score, Negative binomial model, B − A: 0.85 (0.1)
COVID-19 infection [3]; day 3
  COVID-19 symptom severity score raw Mean: 24.1
  symptom score, Fitzmaurice mixed effects model, A: Camostat arm: 22.97 (2.6)
  symptom score, Fitzmaurice mixed effects model, B − A (placebo − camostat): −0.36 (2.79)
  symptom severity score, ANCOVA linear mixed model, A: Camostat arm: −8.01 (2.13)
